One assay deals with A549 cells. In words: 3-day MTS cell viability assay, A549. The format is cell-based. Particulars: Homo sapiens, 72 hours, Fig 1C. The protocol:
(§1) All cancer cell lines (HT-29: colorectal adenocarcinoma, HCT-116: colorectal carcinoma, A549: lung epithelial carcinoma, PC3: prostate adenocarcinoma, Jurkat: acute T-cell leukemia, BC-1: primary effusion lymphoma) and the normal human embryonal lung fibroblast cell line MRC-5 were acquired from the American Type Culture Collection (ATCC). All cell lines were cultured as recommended by the suppliers. Culture media were purchased from Gibco (Thermo Fisher Scientific) and supplemented with 10 to 20% fetal bovine serum (HyClone, GE Healthcare Life Sciences) and 20–25 μg/mL gentamicin (Gibco, Thermo Fisher Scientific). […]
(§2) Cell viability in cancer cell lines treated with compound was measured in a 3-day MTS cell proliferation assay using the CellTiter 96 AQueous Non-Radioactive Cell Proliferation Assay reagent (Promega) according to the manufacturer’s instructions. Absorbance was read at 490 nm on a SaFire II microplate reader (Tecan). CC50 values were calculated by fitting the obtained MTS cell viability data in GraphPad Prism using a 4-parameter log–based fit for inhibitors. Apoptosis induction and cell death upon compound treatment in PBMC was measured using the Alexa Fluor 488 Annexin V/Dead Cell Apoptosis Kit (Thermo Fisher Scientific), with readout on a FACSCanto II flow cytometer (BD Biosciences). […] The compounds were evaluated in duplo in two independent experiments.
A general note: Tetrazolium assays rely on reduction of a dye to a coloured formazan, in cell work by metabolically active cells.

The test system of a further assay is Jurkat cells. In words: 3-day MTS cell viability assay, Jurkat. The class given is cell-based. The note with it: Homo sapiens, 72 hours, Fig 1C. The protocol:
as §1, §2

For another assay, the system named is PC3 cells. In words: 3-day MTS cell viability assay, PC3. The format is cell-based. The note with it: Homo sapiens, PC-3, 72 hours, Fig 1C. The protocol: as §1, §2
For a further assay, the system named is MRC-5 cells. In words: 3-day MTS cell viability assay, MRC-5. The class given is cell-based. Particulars: Homo sapiens, MRC5, 72 hours, normal lung fibroblast cells, Fig 1C. The protocol:
as §1, §2

Assay [1] concerns NCI-60 Human Tumor Cell Lines. Briefly: NCI-60 Human Tumor Cell Lines Screen (whole panel). The class given is cell-based. The note with it: NCI-60 panel; for GI50: Homo sapiens, mean across all cell lines. The procedure:
(§3) The screening methodology used in the NCI60 Cell 5-Doses screen is described in detail at https://dtp.cancer.gov/discovery_development/nci-60/methodology.htm. Briefly, cells are seeded in 96 well plates at an appropriate density and incubated for 1 day. After 1 day, some of the plates are processed to determine a time zero density. To the remaining plates, compounds are added over a 5-log M concentration range (1 log dilutions from 10^-4M to 10^-8M). Plates are incubated for two additional days, then fixed and stained with sulforhodamine B. Growth inhibition is calculated relative to cells without drug treatment and the time zero control. The GI50 is the concentration of a compound that causes 50% growth inhibition, relative to the no drug control.

For a further assay, the system named is tubulin. In words: Fluorescence-based tubulin polymerization assay. Particulars: purified tubulin, fluorescent reporter, vs DMSO control. The class given is biochemical. The protocol:
Tubulin polymerization in vitro was analyzed using the fluorescence-based tubulin polymerization assay (Cytoskeleton, Inc.), according to the manufacturer’s guidelines. Fluorescence was read on a SaFire II microplate reader (Tecan).

The subject of another assay is CCRF-CEM. In words: NCI60 5-dose screen, CCRF-CEM. The format is cell-based. The note with it: Homo sapiens, leukemia, Fig 1D, read-out: Log10 GI50 (CCRF-CEM) (converted). The procedure:
as §3

Another assay has as its system HL-60(TB). Briefly: NCI60 5-dose screen, HL-60(TB). Particulars: Homo sapiens, leukemia, Fig 1D, read-out: Log10 GI50 (HL-60(TB)) (converted). The format is cell-based. The protocol: as §3
For another assay, the system named is SR. In words: NCI60 5-dose screen, SR. The note with it: Homo sapiens, leukemia, Fig 1D, read-out: Log10 GI50 (SR) (converted). The format is cell-based. The procedure:
as §3

For the next assay, the system named is A549/ATCC. Briefly: NCI60 5-dose screen, A549/ATCC. The format is cell-based. Particulars: Homo sapiens, non-small cell lung cancer, Fig 1D, read-out: Log10 GI50 (A549/ATCC) (converted). The procedure:
as §3

For a further assay, the system named is NCI-H226. In words: NCI60 5-dose screen, NCI-H226. Particulars: Homo sapiens, non-small cell lung cancer, Fig 1D, read-out: Log10 GI50 (NCI-H226) (converted). The class given is cell-based. The procedure: as §3
The subject of a further assay is NCI-H322M. Briefly: NCI60 5-dose screen, NCI-H322M. The class given is cell-based. Particulars: Homo sapiens, non-small cell lung cancer, Fig 1D, read-out: Log10 GI50 (NCI-H322M) (converted). The procedure:
as §3

In the next assay the test system is HCC-2998. Briefly: NCI60 5-dose screen, HCC-2998. The format is cell-based. The note with it: Homo sapiens, colon cancer, Fig 1D, read-out: Log10 GI50 (HCC-2998) (converted). The protocol:
as §3

Another assay has as its system HCT-15. In words: NCI60 5-dose screen, HCT-15. The format is cell-based. The note with it: Homo sapiens, colon cancer, Fig 1D, read-out: Log10 GI50 (HCT-15) (converted). The procedure: as §3
The subject of the next assay is IGROV1. In words: NCI60 5-dose screen, IGROV1. The format is cell-based. Particulars: Homo sapiens, IGROV-1; ovarian cancer; Fig 1D; read-out: Log10 GI50 (IGROV1) (converted). The protocol: as §3
Another assay concerns NCI/ADR-RES. Briefly: NCI60 5-dose screen, NCI/ADR-RES. The format is cell-based. Particulars: Homo sapiens, ovarian cancer, Fig 1D, read-out: Log10 GI50 (NCI/ADR-RES) (converted). The procedure: as §3
The next assay has as its system MDA-MB-231/ATCC. In words: NCI60 5-dose screen, MDA-MB-231/ATCC. The format is cell-based. The note with it: Homo sapiens, breast cancer, Fig 1D, read-out: Log10 GI50 (MDA-MB-231/ATCC) (converted). The protocol: as §3
Where [2] appears, read: Fig 1D, read-out: mean GI50 (log10) (converted).
Setting [3] is: read-out: mean GI50 across the panel.

Experimental findings from publication PMC11542830, “3-nitropyridine analogues as novel microtubule-targeting agents” (PLOS ONE, 2024) are described below.

Read-outs that look alike come from different tables or passages of the source. A value given as a limit tells only on which side of the number the result lay.

Usually IC50 stands for the concentration needed to halve the response being measured.

Consider `Cc1cc(C)cc(Nc2ccc([N+](=O)[O-])c(NCCN3CCOCC3)n2)c1` [Compound 4AZA2891, 6-(3,5-dimethylanilino)-2-(2-morpholinoethylamino)-3-nitropyridine], for which the IC50 came to 20.3 nM in the assay with A549 cells, 19.8 nM with Jurkat cells, 11.9 nM in the assay on PC3 cells and 29.6 µM in the assay with MRC-5 cells. Besides, the GI50 was 35.5 nM in assay [1] (setting [2]); 35.5 nM in assay [1] (setting [3]); 33.1 nM in the assay on CCRF-CEM; 25.7 nM with HL-60(TB); 17.4 nM in the assay on SR; 20 nM in the assay on A549/ATCC. Besides, the GI50 with NCI-H226 is 31.6 nM; with NCI-H322M it was 81.3 nM; with HCC-2998, 28.8 nM; in the assay with HCT-15, under 10 nM; in the assay on IGROV1 it was 49 nM; in the assay on NCI/ADR-RES, under 10 nM. Moreover, in the assay on MDA-MB-231/ATCC, the GI50 was 34.7 nM. The “effect on tubulin polymerization in vitro” value in the assay on tubulin is “dose-dependently inhibits tubulin polymerization”.

Turning to `Cc1ccnc(Nc2ccc([N+](=O)[O-])c(NCCN3CCOCC3)n2)c1` [Compound 4AZA2996, N^6-(4-methylpyridin-2-yl)-N^2-(2-morpholinoethyl)-3-nitropyridine-2,6-diamine], the 50% inhibitory concentration (IC50) came out at 12 nM in the assay on A549 cells, 14 nM with Jurkat cells, 9.5 nM in the assay with PC3 cells and 23.3 µM with MRC-5 cells. Besides, the GI50 in assay [1] (setting [2]) was 21.9 nM; in assay [1] (setting [3]), 21.9 nM; in the assay with CCRF-CEM, 26.3 nM; with HL-60(TB), under 10 nM; in the assay with SR it was under 10 nM; in the assay with A549/ATCC, under 10 nM. Besides, the GI50 in the assay on NCI-H322M is 46.8 nM; in the assay with HCC-2998, 17 nM; in the assay with HCT-15 it was under 10 nM; with IGROV1, 57.5 nM; in the assay with MDA-MB-231/ATCC, 38 nM. In [1] (out of the cell lines tested), the “number of cell lines with GI50 lower than 10 nM” value is recorded as 31 of the 50.
